Organism: Rattus norvegicus
Experiment: DrugMatrix - Regimen: Daily Repeat
Type: toxicity, organism-based, Sprague-Dawley
Set-up: regimen Daily Repeat, gender Male, age 6-8 weeks
Conditions: in vivo, po, route oral GAVAGE, vehicle .5 % CMC; for ABSOLUTE BASOPHIL / ABSOLUTE EOSINOPHIL / ABSOLUTE LYMPHOCYTE / ABSOLUTE MONOCYTE / ABSOLUTE SEGMENTED NEUTROPHIL / BASOPHIL / EOSINOPHIL / ERYTHROCYTE COUNT / HEMATOCRIT / HEMOGLOBIN / LEUKOCYTE COUNT / LYMPHOCYTE / MEAN CORPUSCULAR HEMOGLOBIN / MEAN CORPUSCULAR HEMOGLOBIN CONCENTRATION / MEAN CORPUSCULAR VOLUME / MONOCYTE / NEUTROPHIL / NUCLEATED RED BLOOD CELLS / PLATELET COUNT: tissue Blood; for ALANINE AMINOTRANSFERASE / ALBUMIN / ALKALINE PHOSPHATASE / ASPARTATE AMINOTRANSFERASE / BLOOD UREA NITROGEN / CARBON DIOXIDE / CHLORIDE / CHOLESTEROL / CREATINE PHOSPHOKINASE / CREATININE / GLUCOSE / LACTATE DEHYDROGENASE / LIPASE / PHOSPHORUS / POTASSIUM / SODIUM / TOTAL BILIRUBIN / TOTAL PROTEIN / URIC ACID: tissue Plasma
[1] = 0 mg/kg, 72 h, dose level Control, time 3 day
[2] = 0 mg/kg, 120 h, dose level Control, time 5 day
[3] = 100 mg/kg, 72 h, dose level Low, time 3 day

SMILES: Cl.NC[C@H]1CC[C@H](C(=O)Oc2ccc(CCC(=O)O)cc2)CC1 [CETRAXATE HYDROCHLORIDE]
- ABSOLUTE BASOPHIL [1]: 0 CELLS/uL
- ABSOLUTE EOSINOPHIL [1]: 284.5 CELLS/uL
- ABSOLUTE LYMPHOCYTE [1]: 11670.5 CELLS/uL
- ABSOLUTE MONOCYTE [1]: 420.83 CELLS/uL
- ABSOLUTE SEGMENTED NEUTROPHIL [1]: 1024.17 CELLS/uL
- BASOPHIL [1]: 0%
- EOSINOPHIL [1]: 1.67%
- ERYTHROCYTE COUNT [1]: 5.38 x10E6/uL
- HEMATOCRIT [1]: 34.05%
- HEMOGLOBIN [1]: 12.75 G/DL
- LEUKOCYTE COUNT [1]: 13.4 x10E3/uL
- LYMPHOCYTE [1]: 88.33%
- MEAN CORPUSCULAR HEMOGLOBIN [1]: 23.73 pg
- MEAN CORPUSCULAR HEMOGLOBIN CONCENTRATION [1]: 37.43 G/DL
- MEAN CORPUSCULAR VOLUME [1]: 63.4 fL
- MONOCYTE [1]: 2.83%
- NEUTROPHIL [1]: 7.17%
- NUCLEATED RED BLOOD CELLS [1]: 0 /100WBC
- PLATELET COUNT [1]: 1184.67 x10E3/uL
- ALANINE AMINOTRANSFERASE [1]: 45.33 u/L
- ALBUMIN [1]: 4.3 G/DL
- ALKALINE PHOSPHATASE [1]: 388.83 u/L
- ASPARTATE AMINOTRANSFERASE [1]: 84.83 u/L
- BLOOD UREA NITROGEN [1]: 15.5 mg/dL
- CARBON DIOXIDE [1]: 27 mmol/L
- CHLORIDE [1]: 101.8 MEQ/L
- CHOLESTEROL [1]: 76.67 mg/dL
- CREATINE PHOSPHOKINASE [1]: 301 u/L
- CREATININE [1]: 0.21 mg/dL
- GLUCOSE [1]: 168.83 mg/dL
- LACTATE DEHYDROGENASE [1]: 294.83 u/L
- LIPASE [1]: 9.8 u/L
- PHOSPHORUS [1]: 13.25 mg/dL
- POTASSIUM [1]: 6.41 MEQ/L
- SODIUM [1]: 143.72 MEQ/L
- TOTAL BILIRUBIN [1]: 0.22 mg/dL
- TOTAL PROTEIN [1]: 5.98 G/DL
- URIC ACID [1]: 1.5 mg/dL
- ABSOLUTE BASOPHIL [2]: 0 CELLS/uL
- ABSOLUTE EOSINOPHIL [2]: 190.67 CELLS/uL
- ABSOLUTE LYMPHOCYTE [2]: 12549.5 CELLS/uL
- ABSOLUTE MONOCYTE [2]: 276 CELLS/uL
- ABSOLUTE SEGMENTED NEUTROPHIL [2]: 1067.17 CELLS/uL
- BASOPHIL [2]: 0%
- EOSINOPHIL [2]: 1.33%
- ERYTHROCYTE COUNT [2]: 5.66 x10E6/uL
- HEMATOCRIT [2]: 35.92%
- HEMOGLOBIN [2]: 13.65 G/DL
- LEUKOCYTE COUNT [2]: 14.08 x10E3/uL
- LYMPHOCYTE [2]: 89%
- MEAN CORPUSCULAR HEMOGLOBIN [2]: 24.12 pg
- MEAN CORPUSCULAR HEMOGLOBIN CONCENTRATION [2]: 38.03 G/DL
- MEAN CORPUSCULAR VOLUME [2]: 63.47 fL
- MONOCYTE [2]: 2%
- NEUTROPHIL [2]: 7.67%
- NUCLEATED RED BLOOD CELLS [2]: 0.17 /100WBC
- PLATELET COUNT [2]: 1251.67 x10E3/uL
- ALANINE AMINOTRANSFERASE [2]: 43.33 u/L
- ALBUMIN [2]: 4.22 G/DL
- ALKALINE PHOSPHATASE [2]: 365.67 u/L
- ASPARTATE AMINOTRANSFERASE [2]: 83.67 u/L
- BLOOD UREA NITROGEN [2]: 18.17 mg/dL
- CARBON DIOXIDE [2]: 28.67 mmol/L
- CHLORIDE [2]: 103.5 MEQ/L
- CHOLESTEROL [2]: 71.5 mg/dL
- CREATINE PHOSPHOKINASE [2]: 284.5 u/L
- CREATININE [2]: 0.21 mg/dL
- GLUCOSE [2]: 161.67 mg/dL
- LACTATE DEHYDROGENASE [2]: 259.67 u/L
- LIPASE [2]: 9.5 u/L
- PHOSPHORUS [2]: 12.45 mg/dL
- POTASSIUM [2]: 6.49 MEQ/L
- SODIUM [2]: 144.25 MEQ/L
- TOTAL BILIRUBIN [2]: 0.2 mg/dL
- TOTAL PROTEIN [2]: 6.1 G/DL
- URIC ACID [2]: 1.73 mg/dL
- ABSOLUTE BASOPHIL [3]: 0 CELLS/uL
- ABSOLUTE EOSINOPHIL [3]: 0 CELLS/uL
- ABSOLUTE LYMPHOCYTE [3]: 4748 CELLS/uL
- ABSOLUTE MONOCYTE [3]: 119.67 CELLS/uL
- ABSOLUTE SEGMENTED NEUTROPHIL [3]: 265.67 CELLS/uL
- BASOPHIL [3]: 0%
- EOSINOPHIL [3]: 0%
- ERYTHROCYTE COUNT [3]: 5.52 x10E6/uL
- HEMATOCRIT [3]: 36.1%
- HEMOGLOBIN [3]: 13.33 G/DL
- LEUKOCYTE COUNT [3]: 5.13 x10E3/uL
- LYMPHOCYTE [3]: 92.67%
- MEAN CORPUSCULAR HEMOGLOBIN [3]: 24.2 pg
- MEAN CORPUSCULAR HEMOGLOBIN CONCENTRATION [3]: 36.97 G/DL
- MEAN CORPUSCULAR VOLUME [3]: 65.43 fL
- MONOCYTE [3]: 2.33%
- NEUTROPHIL [3]: 5%
- NUCLEATED RED BLOOD CELLS [3]: 0 /100WBC
- PLATELET COUNT [3]: 1331 x10E3/uL
- ALANINE AMINOTRANSFERASE [3]: 33.33 u/L
- ALBUMIN [3]: 4.63 G/DL
- ALKALINE PHOSPHATASE [3]: 363 u/L
- ASPARTATE AMINOTRANSFERASE [3]: 79 u/L
- BLOOD UREA NITROGEN [3]: 15 mg/dL
- CARBON DIOXIDE [3]: 25 mmol/L
- CHLORIDE [3]: 104 MEQ/L
- CHOLESTEROL [3]: 87.33 mg/dL
- CREATINE PHOSPHOKINASE [3]: 255.33 u/L
- CREATININE [3]: 0.17 mg/dL
- GLUCOSE [3]: 163.33 mg/dL
- LACTATE DEHYDROGENASE [3]: 159.67 u/L
- LIPASE [3]: 10 u/L
- PHOSPHORUS [3]: 12.2 mg/dL
- POTASSIUM [3]: 6 MEQ/L
- SODIUM [3]: 147 MEQ/L
- TOTAL BILIRUBIN [3]: 0.13 mg/dL
- TOTAL PROTEIN [3]: 6.57 G/DL
- URIC ACID [3]: 1.6 mg/dL

— ChEMBL document CHEMBL3885881, “DrugMatrix”
